Reference: PubChem BioAssay AID2305 (GlaxoSmithKline (GSK), 2010)

test system: P. falciparum 3D7 growth, pLDH absorbance; assay: P. falciparum 3D7 growth inhibition, dose response, strain 3D7 (AID 2305)

Row | SMILES | IC50 [nM]
1 | COc1ccc2nccc([C@@H](O)CN3CCC(NC(=O)c4ccc5nc(-n6cccc6)sc5c4)CC3)c2c1 | 1000
2 | FC(F)(F)c1ccc2nc(-c3cccc(-c4ccc(CNCCc5ccncc5)cc4)c3)[nH]c2c1 | 100
3 | Cc1cccc2sc(N(CCCn3ccnc3)C(=O)C=Cc3cccs3)nc12 | 1280
4 | Cc1cc(N)c2cc(NC(=O)/C=C/c3ccccc3)ccc2n1 | 760
5 | Oc1ccc(CCNc2nc(NCc3ccccc3-c3ccc(F)cc3)nc(N3CCNCC3)n2)cc1 | 1070
6 | Oc1ccc2[nH]cc(C3=CCN(CCc4ccccc4)CC3)c2c1 | 310
7 | COc1ccc(CNC2CCN(C)CC2)cc1-c1ccc(S(=O)(=O)NCCc2ccccn2)c(C)c1 | 1150
8 | Cc1ccc(S(=O)(=O)n2nccc2-c2c(-c3ccc(Cl)cc3)noc2C)cc1 | 810
9 | COc1ccc2nc(/N=C(/N)NC(=O)Nc3ccccc3)nc(C)c2c1 | 1280
10 | CCn1c(CN2CCC(C)CC2)nc2cc(NC(=O)c3cccs3)ccc21 | 560
11 | CC(c1cccc(S(=O)(=O)NCc2ccc(Cl)cc2Cl)c1)N1CCC(N2CCCCC2)CC1 (stereo not drawn) | 750
12 | Cc1cc(C(F)(F)F)n2nc(C(=O)N(Cc3cncn3Cc3cccc(F)c3)CC3CC3)cc2n1 | 740
13 | O=C1C(c2ccccc2)=C(Nc2cccc([N+](=O)[O-])c2)c2ccccc21 | 890
14 | CCC(C)(CC)C(=O)n1ncc2c3c(N)nc(N)nc3ccc21 | 10
15 | CN(C)C(=O)c1cc(CNCc2ccccc2)ccc1-c1cccc(CNCc2ccc(-c3ccccc3)cc2)c1 | 1050
16 | COc1ccc(CN2CCC(NCc3cccc(C(F)(F)F)c3)CC2)cc1 | 750
17 | CCc1cn(CCCOC)c2ccc(C(=O)N[C@@H](Cc3ccccc3)[C@H](O)CNCc3cccc(C(F)(F)F)c3)cc12 | 190
18 | COc1cc2c(cc1OCCN1CCC(N3CCCCC3)CC1)N(C(=O)/C=C/c1ccccc1Cl)CC2 | 280
19 | COc1cccc2cc(C(=O)N[C@@H](CC(C)C)C(=O)N[C@H](/C=N/NC(=O)N3CCN(C)CC3)CCc3ccccc3)oc12 | 620
20 | O=C(/C=C/c1ccc(Cl)c(Cl)c1)NCCCCCN1CC[C@H](NC(=O)Nc2ccc(Oc3ccccc3)cc2)C1 | 700
21 | CC(C)(C)c1cc(C(=O)Nc2ccc(C(=N)N)cc2)c(O)c(C(C)(C)C)c1 | 760
22 | COc1ccc(Cl)cc1NC(=O)CN(C)C(=O)c1cnn(-c2ccccc2)n1 | 230
23 | O=c1c2ccccc2[nH]c2nc3ccccc3c(Nc3ccccc3)c12 | 140
24 | OC1CCCN(Cc2ccc(-c3ccc(-c4nc5ccc(F)cc5[nH]4)s3)cc2)C1 (stereo not drawn) | 850

Row | SMILES | IC50 [nM]
25 | Cc1cc(-c2cccc3c(C(=O)N4CCc5cc6nccc(N7CCN8CCC[C@H]8C7)c6cc54)cccc23)cc(C)n1 | 710
26 | C[C@@H](CC1CCCCC1)OC(=O)N[C@H]1CCN(C#N)C1 | 870
27 | CCCNCc1ccc(-c2ccc(CN(CCOC)C(=O)CCC(=O)c3ccc(OC)c(F)c3)cc2)nc1 | 680
28 | Cc1cccc2[nH]c(-c3ccc(-c4ccc(NC(=O)C5CCN(C)CC5)cc4)cc3)nc12 | 750
29 | O=C(Nc1ccc(Cl)cc1)N(CC1C[C@H]2CC[C@@H](C1)N2Cc1ccc(C(F)(F)F)cc1)c1ccc(N2CCOCC2)c(F)c1 (stereo partly drawn) | 1070
30 | Cc1cccc(CN2CCCC3(CCN(Cc4ccccc4O)C3)C2)c1 (stereo not drawn) | 800
31 | COc1ccc(-c2nc3cccnc3n2CC(=O)Nc2c(C)cc(C)cc2C)c(OC)c1 | 930
32 | Cc1cc(NN=Cc2ccccc2Cl)c2cc(C(F)(F)F)ccc2n1 | 860
33 | CCCC1(NC[C@@H](O)[C@H](Cc2ccccc2)NC(=O)c2cc(NCC)cc(N3CCCCS3(=O)=O)c2)CCCCC1 | 250
34 | N=c1sc2ccccc2n1CC(O)c1ccc(Cl)c(Cl)c1 (stereo not drawn) | 800
35 | Cc1ccccc1C1CCN(C2CCC(NC(=O)/C=C/c3ccc4c(c3)OC(F)(F)O4)CC2)CC1 (stereo not drawn) | 670
36 | O=C(Nc1cccc(-c2nn3ccccc3c2-c2ccnc(Nc3cccc(F)c3)n2)c1)c1c(F)ccc(F)c1F | 860
37 | CCCc1c(C(=O)NC2CCC(CN3CCC(c4c[nH]c5ccccc45)CC3)CC2)cnn1-c1ccc(Cl)cc1 (stereo not drawn) | 760
38 | Cc1cccc2[nH]c(-c3ccc(-c4cccc(CNC(C)C)c4)s3)nc12 | 230
39 | Cc1ccc2[nH]c3c(NCCN(C)C)ncnc3c2c1 | 840
40 | Cc1cccc(-n2c(=O)c3c4c(sc3n3c(SCCC(C)C)nnc23)CCCC4)c1 | 760
41 | Cc1cccc2[nH]c(-c3ccc(-c4cccc(CNCCCN5CCCC5=O)c4)s3)nc12 | 590
42 | O=C(Nc1ccc(OC2CCN(Cc3ccc(F)cc3)C2)c(Cl)c1)c1ccsc1 (stereo not drawn) | 540
43 | CCOC(=O)c1c(NC(NC(=O)c2ccc(C(C)(C)C)cc2)C(Cl)(Cl)Cl)sc2c1CCCC2 (stereo not drawn) | 810
44 | COc1ccc(-c2cc3nc4c(c(NCCCn5ccnc5)n3n2)CCCC4)cc1 | 730
45 | COc1cc(/C=C/C(=O)NC2CCC(N3CCC(c4ccccc4C)CC3)CC2)cc(OC)c1 (stereo not drawn) | 980
46 | CC(C)CN(c1nc(C(=O)NNC(=O)[C@H](CC2CC2)NC(=O)c2cc3cc(OCCN4CCCCC4)ccc3o2)cs1)C1CC1 | 210
47 | CC(=O)Nc1ccc(S(=O)(=O)NC2=NC(C)(C)N(OCc3ccc(Cl)c(Cl)c3)C(N)=N2)cc1 | 30
48 | O=C(CCOc1ccccc1)NCC1CCCO1 (stereo not drawn) | 1000
